Entries after “also recorded” stand apart in the source; their conditions may differ.
Assays:
B16 melanoma cells = assay: Cytotoxicity of PMEL CD8 T cells against gp-100 coated B16 cells, flow cytometry; assay type: cell-based; settings: 100 μM; p=0.02
Procedure: Cytoxicity was measured via flow cytometry with CellTrace™ Far Red (B16 cells) and a live/dead marker (Zombie™ Green).

STAT1 [1] = assay: Nitrated STAT1 by immunoblot after nitrated tyrosine immunoprecipitation in normal donor PBMC; assay type: cell-based; settings: normal donor human PBMC
From the text: An increased [nSTAT1]/[STAT1] ratio can be associated with resistance to anti-PD-1 therapy. Unfractionated PBMC samples are utilized for the mass spectrometry experiments as they are routinely collected from patients and with the expectation of STAT1 having increased nitration (FIG. 4). A second aliquot of PBMCs from the patients can be stimulated in parallel with IFN and subsequent downstream activation determined via measurement of phosphorylated STAT1. Activation of STAT1 can be measured by intracellular staining for activated (i.e. phosphorylated) STAT1 using flow cytometry. IFN responsiveness decreases by ~30% in metastatic cancer patients. There is an inverse relationship between the levels of pSTAT1 and levels of nitrated STAT1. As a control, STAT1 nitration can be measured in normal donor PBMCs treated with SNAP via immunoblot (FIG. 13). As such, PBMCs from melanoma patients can be compared to normal donors. […] Additional nitrated proteins can be quantified in the future via LC-MRM (Liquid Chromatography, multiple reaction monitoring) including the targets outlined in the introductory material (assay requires <200,000 cells); and can expand the list of which nitration events are important for response to anti-PD1 therapy in case STAT1 is not the only important target.

T cells = assay: T cell proliferation after tetanus toxoid antigen presentation from human DC in PBMC sample; assay type: cell-based; settings: tetanus toxoid 1 ug/ul
[2] = system: antigen presentation from DCs to CD4+ T cells; assay: DC antigen presentation to OT-II CD4+ T cells, [3H]-thymidine incorporation; assay type: cell-based, mouse; settings: for MDSC inhibition of antigen presentation in the presence of iNOS inhibitor: MDSCs derived from B16 melanoma, OVA peptide stimulus
Procedure: For space constraints only the OVA peptide stimulus is depicted in B and C.
The effects of NO on DC function using transgenic mice were evaluated that express a T cell receptor (TCR) specific for a defined antigen, namely OVA. […] Levels of SNAP or other NO donors such as deta-NONOate can be adjusted to mimic the physiological concentration of NO within MDSCs and be utilized to directly measure binding of tetramers to the TCR complex. To simulate a real world scenario of antigen expressed naturally by the B16 tumors as advised by the reviewers, We can utilize transgenic mice that express a T cell receptor (TCR) specific for the Tyrosinase-Related Protein 1 (Trp-1).

B16 melanoma = assay: PD-1 refractory B16 melanoma model; assay type: in vivo, mouse
From the text: NCX-4016 is a nitroaspirin and inhibits the nitric oxide synthase via a negative feedback mechanism. These compounds are available for clinical trial use, and have a toxicity profile that is favorable for evaluation in patients with advanced malignancies. I predict nitroaspirin compounds in combination with anti-PD-1 therapy can rescue the ability to stimulate CD4^+ T cells and decrease tumor growth. […] We can use nitroaspirin alone and along with anti-PD-1 in therapeutically achievable doses in the murine B16 melanoma model to measure tumor growth curves and obtain specimens for analyses.

STAT1 [3] = assay: pSTAT1 flow cytometry of normal donor PBMCs stimulated with interferon-alpha; assay type: cell-based, human
Procedure: FIGS. 20A, 20B, and 20C show Interferon-alpha stimulation of normal donors PBMCs.
(§1) Flow cytometry and mass spectrometry analyses. Flow cytometric analysis of pSTAT1 and liquid chromatography-tandem mass spectrometry (LC-MS-MS) analysis of nitrated STAT1 (nSTAT1) were conducted on all samples. For flow cytometry studies, frozen PBMCs were thawed at 37° C., washed with culturing media, and allowed to rest overnight in complete media at 5% CO2 at 37° C. PBMCs were stimulated with interferon-α (Miltenyi Biotec, Cambridge, MA) at 0, 10^2 U/mL, and 10^4 U/mL and incubated for 15 minutes in media.
(§2) The live/dead marker Zombie NIR (BioLegend, San Diego, CA) was used before permeabilization to distinguish live cells. The samples were permeabilized using the FIX & PERM Cell Permeabilization Kit with methanol modification (Fisher Scientific, Hampton, MA) and fixed at −20° C. for a minimum of 2 hours. pSTAT1 was detected by a pSTAT1 antibody (AF488; BD Biosciences, San Jose, CA). Flow cytometry data were collected either on Canto or LSRII flow cytometers (BD Biosciences, San Jose, CA), and data were analyzed in FCS Express (De Novo Software, Pasadena, CA). Measurement of patient-derived PBMCs for nSTAT1 and native STAT1 via LC-MS-MS SRM experiments was performed. […]

[4] = system: resected stages IIIC/IV melanoma; assay: Phase II trial of adjuvant ipilimumab with a peptide vaccine, clinical outcome; assay type: in vivo, human
Procedure: Patient samples. […] Peripheral blood leukocytes were collected before initiation of ipilimumab treatment and at approximately 150 days after the first treatment. PBMCs were available and were de-identified before inclusion in our current study.
Statistical analyses. We conducted statistical analyses to determine whether there is a relationship between levels of pSTAT1, nSTAT1, and RFS. Survival outcome was summarized using Kaplan-Meier method and log-rank test was performed to evaluate the association of survival outcome with pSTAT1 and nSTAT1 levels dichotomized by the median-split method. […] Levene's F-test for the homogeneity of variance was used to compare variance of pSTAT1 level among patients with different RFS rates. Patients were also stratified using the median-split method for a survival comparison analysis of [nSTAT1]post-[nSTAT1]pre with ipilimumab treatment. […] A two-sided P value of <0.05 was considered statistically significant. Treatment outcome is reported at the end of the follow up period for the parent trial (5 years).
Patient demographics. Pre- and post-therapy PBMCs were available from 35 patients with resected stages IIIC/IV melanoma.

[5] = system: stage IIIB through IV melanoma; settings: adjuvant, cited from earlier work; for 12-month RFS rate: stage IIIB through IV melanoma
STAT1 [6] = assay: pSTAT1 flow cytometry of patient PBMCs pre versus post ipilimumab; assay type: in vivo, human
Procedure: FIGS. 22A, 22B, and 22C show the paired pSTAT1 level pre versus post ipilimumab treatment without (FIG. 22A) Interferon-alpha stimulation, after (FIG. 22B) 10^2 U/mL Interferon-alpha stimulation, and (FIG. 22C) 10^4 U/mL Interferon-alpha stimulation.
as §1
as §2, with “CA).” for “CA). Measurement of patient-derived PBMCs for nSTAT1 and native STAT1 via LC-MS-MS SRM experiments was performed.”

stage III melanoma = settings: cited from earlier work
[7] = n = 35, end of follow up period (5 years)

Compound: CC(=O)NC(C(=O)O)C(C)(C)SN=O (racemic) [SNAP, S-Nitroso-N-Acetyl-D,L-Penicillamine]
- cytotoxicity of target B16 melanoma cells by effector PMEL CD8 T cells (B16 melanoma cells): reduced
- levels of nitrated STAT1 (STAT1 [1]): elevated levels of nitrated STAT1
- proliferation of T cells after antigen presentation of tetanus toxoid (T cells): decreases proliferation of T cells
- DC antigen presentation to CD4+ T cells (proliferation of OT-II T cells) ([2]; nitric oxide donor SNAP, DCs and CD4+ T cells ratio 1:4 from OT-II mouse): inhibit DC antigen presentation to CD4+ T cells

Compound: COC(=O)[C@@H](N)CCCNC(=N)N[N+](=O)[O-] [L-NAME, L-nitroarginine methyl ester]
- MDSC inhibition of antigen presentation in the presence of iNOS inhibitor [2]: this effect was abrogated

Compound: CC(=O)Oc1ccccc1C(=O)Oc1cccc(CO[N+](=O)[O-])c1 [NCX-4016]
- iNOS expression with iNOS inhibitor in-vivo (B16 melanoma; B16 melanoma model): iNOS expression is decreased
- efficacy in combination with anti-PD1 blockade (B16 melanoma; PD-1 refractory B16 melanoma model, combination with anti-PD-1): more efficacious than either treatment alone; also recorded: increases the efficacy of anti-PD1 blockade
- MDSC inhibition of antigen presentation in the presence of iNOS inhibitor [2]: this effect was abrogated

Compound: interferon-α
- pSTAT1 levels with increasing interferon levels (STAT1 [3]): concentration-dependent increase in pSTAT1 levels
- concentration showing near-maximum phosphorylation of STAT1 (STAT1 [3]; 15 minutes of treatment): 500 U/ml

Compound: ipilimumab: Monoclonal antibody against CTLA-4
- RFS, 3 mg/kg vs 10 mg/kg ([4]; Log rank P-value=0.96): no statistical significant differences in RFS
- Treatment outcome AWD (alive with disease), Percentage [4, 7]: 6%
- Treatment outcome DOD (died of disease), Percentage [4, 7]: 17%
- Treatment outcome NED (no evidence of disease), Percentage [4, 7]: 77%
- 12-month RFS rate [5]: 60.8%
- levels of STAT1 pre versus post treatment (STAT1 [6]; 10 mg/kg cohort, t-test, p<0.01): statistically significant increase
- changes in pSTAT1 between the 10 mg/kg and 3 mg/kg cohorts (STAT1 [6]; 150 days post treatment): no statistically significant changes in pSTAT1

Compound: nivolumab: Monoclonal antibody against PD-1
- 12-month RFS rate [5]: 70.5%
- toxicity compared to ipilimumab [5]: significantly decreased toxicity

Compound: pembrolizumab: Monoclonal antibody against PD-1
- efficacy compared to interferon-α or ipilimumab (stage III melanoma): increased efficacy

Source: patent publication US20260283997A1, “METHODS FOR INHIBITING RESISTANCE TO IMMUNE BLOCKADE INHIBITOR THERAPY” (H. LEE MOFFITT CANCER CENTER AND RESEARCH INSTITUTE, INC., priority 2023, published 2026)
